The subject of data set [1] is mPTP. The data set can be described thus: mPTP activity assay in isolated rat liver mitochondria (Ca2+ retention, Fluo5N, FLIPR). Type of data set: biochemical. Conditions: isolated rat liver mitochondria; average value from multiple experiments (n ≥ 2). From the text: Pharmacological inhibition or modulation of the mPTP can be measured in well characterised ‘Ca^2+ retention’ assays performed in isolated mitochondria. In vitro, isolated mitochondria rapidly sequester exogenous Ca^2+ until the intramitochondrial Ca^2+ concentration reaches the threshold for mPTP activation. Once the pore is activated, mitochondrial integrity is compromised and the stored Ca^2+ is released. The distribution of Ca^2+ between extra- and intra-mitochondrial compartments can be measured in real time with the use of membrane-impermeant Ca^2+ sensitive fluorescent dyes. Depending on the configuration of the assay, inhibition or modulation of the mPTP either delays the opening of the pore or increases the concentration of Ca^2+ required to induce mPTP opening.
mPTP activity was measured in mitochondria freshly isolated from female Sprague Dawley (250 to 300 gram) rat livers using the following method. Cervical dislocation was performed on the rat. The liver was then perfused in-situ with ˜40 ml cold Dulbecco's Phosphate Buffered Saline (DPBS) prior to dissection and transferred into 30 ml Isolation Buffer (250 mM Sucrose, 10 mM KCl, 1 mM EGTA, 1 mM EDTA, 25 mM HEPES, adjusted to pH 7.5 with 1 M NaOH). Each lobe of the liver was then removed from the buffer, minced using tweezers and a scalpel into ˜5 mm pieces then transferred into a 50 ml Potterton dounce homogenization tube on ice containing 30 ml ice-cold centrifugation buffer (300 mM Trehalose, 25 mM HEPES, 1 mM EGTA, 1 mM EDTA, 10 mM KCl, adjusted to pH 7.5 with 1 M NaOH and supplemented with 0.1% bovine serum albumin (BSA) and complete protease inhibitor cocktail (one tablet of inhibitor per 50 mls of buffer). Homogenisation was carried out using a teflon pestle at 1800 rpm. The slurry was centrifuged at 800 g for 10 min at 4° C., then the supernatant centrifuged at 10,000 g for 10 min. The pellet was washed once with FLIPR assay buffer (75 mM Mannitol, 25 mM Sucrose, 5 mM Potassium Phosphate Monobasic, 20 mM Tris base, 100 mM KCl, 0.1% BSA adjusted to pH 7.4 with 5 M HCl) centrifuged again, then resuspended in FLIPR assay buffer to a concentration of 8.8 mg/ml protein.
Test compounds (10 mM stock in DMSO) were serially diluted in DMSO in half log steps to generate 10 test concentrations (final concentrations in assay 30 μM to 1 nM). An intermediate dilution of 5 μl DMSO samples into 247 μl FLIPR assay buffer was carried out prior to transfer of 5 μl into duplicate wells of a 384 well polypropylene assay plate. Control wells were 0.5% (v/v) DMSO and 5 μM cyclosporin A.
A stock mitochondria/Fluo5N assay solution was prepared in 5.6 ml FLIPR assay buffer (at RT) supplemented with succinate disodium salt (10 mM), rotenone (1 μM), Fluo5N pentapotassium salt (2 μM) and 1 ml mitochondria suspension, then transferred (15 μl) into the assay plate containing test compounds and incubated for 10 min at RT. Assay plates were then transferred to a FLIPR Tetra plate reader (Molecular Devices). Dye fluorescence was then measured every 3 sec for a total of 10 min. After 12 sec, a 2.5 μl bolus of CaCl2 (75 μM) was added from a source plate containing 675 μM CaCl2 in FLIPR assay buffer. IC50 values for test compounds were calculated using the fluorescence value collected at the 10 min timepoint with % inhibition calculated using the DMSO control and cyclosporin A values as […] respectively.

Data set [2] is described as follows: Hepatocyte clearance assay, human. In kind it is in vitro ADME. The note with it: cryopreserved primary human hepatocytes, average value from two experiments, read-out: Human heps intrinsic clearance (CLint). How it is done: (§1) In vitro clearance studies were performed in primary rat and human hepatocytes (BioIVT). Vials of cryopreserved rat or human hepatocytes were thawed in a 37° C. water bath for 2 min. Cells were transferred into thawing medium (Williams' Medium E containing 30% Percoll, 1× GlutaMAX-1, 15 mM HEPES, 5% fetal bovine serum (FBS), 4 μg/ml insulin, 1 μM dexamethasone), centrifuged at 100 g for 10 min then resuspended in culture medium (Leibovitz's L-15 Medium) at a concentration of 0.5×10^6 viable cells/mL (number of viable cells assessed using AO/PI staining). Hepatocytes (198 μL) were transferred into wells of a 96-well non-coated plate and placed in a 37° C. incubator for 10 min. Test compound solutions were prepared from 10 mM stocks in DMSO, diluted to 100 μM in 50% (v/v in water) acetonitrile. Test compound samples (2 μl) were added to each well of hepatocytes and incubated at 37° C. Samples (25 μl) were collected at t=0, 15, 30, […] and 120 min, mixed with 6 volumes (150 μl) of acetonitrile containing internal standard (100 nM alprazolam, 200 nM caffeine and 100 nM tolbutamide), vortexed for 5 min and centrifuged for 45 min at 3220 g. An aliquot of supernatant (100 μL) was diluted with 100 μL ultra-pure water, and the mixture was used for LC/MS/MS analysis. All incubations were performed in duplicate. Peak areas were determined from extracted ion chromatograms. The slope value, k, was determined by linear regression of the natural logarithm of the remaining percentage of the parent drug vs. incubation time curve. The in vitro half-life (in vitro t1/2) was determined from the slope value: in vitro t1/2=0.693/k. Conversion of the in vitro t1/2 (in min) into the in vitro intrinsic clearance (in vitro CLint, in μL/min/1×10^6 cells) was done using the following equation (mean of duplicate determinations): • in vitro CLint=kV/N • V=incubation volume (0.2 mL) • N=number of hepatocytes per well (0.1×10^6 cells). Microsomal Clearance Assay

A short description of data set [3]: Hepatocyte clearance assay, rat. In kind it is in vitro ADME. The note with it: cryopreserved primary rat hepatocytes, average value from two experiments, read-out: Rat heps intrinsic clearance (CLint). How it is done:
as §1

The nature of data set [4]: FaSSIF solubility. Type of data set: physicochemical. The note with it: kinetic from dmso stock, Fasted state simulated intestinal fluid, 2 hr at 25° C. How it is done:
(§2) Test compounds were prepared as 10 mM stocks in DMSO and 15 μl samples transferred in duplicate into 1.5 mL glass flat bottom vials (BioTech Solutions). Fasted state simulated intestinal fluid (FaSSIF) or PBS (pH 7.4) was added to each vial to final volume of 500 μl. One PTFE encapsulated stir stick (V&P Scientific) was placed in each vial before sealing with PTFE/SIL plugs (BioTech Solutions). Vials were shaken at 1100 rpm for 2 hr at 25° C. Samples were then filtered through MultiScreen Solvinert filter plates (Millipore) via vacuum filtration. Aliquots of filtrate (5 μl) plus 5 μl DMSO were diluted in 490 μl 50% acetonitrile in water containing internal standard. The filtrate was analysed and quantified against a standard of known concentration using LC-MS/MS. Solubility values of the test compound and control compound were calculated as follows: [Sample]=(Area ratiosample*INJ VOL STD*DFsample*[STD])/(Area ratio STD*INJ VOLsample).

Data set [5] in a line: PBS solubility. In kind it is physicochemical. Conditions: aqueous buffer, kinetic from dmso stock; PBS pH 7.4, 2 hr at 25° C. As for the experimental part:
as §2

The subject of data set [6] is mPTP. The experiment in a line: mPTP activity assay in isolated rat brain mitochondria. Type of data set: biochemical. Conditions: isolated rat brain mitochondria. As for the experimental part: MPTP activity was measured in brain mitochondria freshly isolated from female Sprague Dawley (250 to 300 gram) rats. Anaesthetised rats were perfused in-situ with ˜40 ml cold Dulbecco's Phosphate Buffered Saline (DPBS), then brains dissected and transferred into 30 ml Isolation Buffer (225 mM mannitol, 75 mM sucrose, 1 mM EGTA, adjusted to pH 7.4 with 1 M NaOH). The brain was minced using tweezers and a scalpel into ˜5 mm pieces then transferred into a 50 ml Potterton Dounce homogenization tube on ice containing 10 ml ice-cold isolation buffer (as above with addition of Complete Protease inhibitor; 1 tablet per 50 ml buffer). Homogenisation was carried out using a teflon pestle at 1800 rpm. The slurry was centrifuged at 2000 g for 10 min at 4° C., then the supernatant centrifuged at 12,000 g for 9 min. The pellet was resuspended with a dounce homogeniser in isolation buffer as above but with the addition of 0.02% digitonin, centrifuged at 12,000 g for 11 min and finally resuspended in 5 ml modified isolation buffer (as above but with EGTA reduced to 0.1 mM).
Test compounds were prepared in 384 well polypropylene assay plates as described above for the liver mitochondria assay. A stock mitochondria/Fluo5N assay solution was prepared in 5.6 ml assay buffer (120 mM mannitol, 40 mM MOPS, 5 mM KH2PO4, 60 mM KCl, 10 mM pyruvate, 2 mM malate, 2 mM MgCl2, 20 μM ADP, 1.26 μM oligomycin A, adjusted to pH 7.4) supplemented with Fluo5N pentapotassium salt (2 μM) and 1 ml mitochondria suspension, then transferred (15 μl) into the assay plate containing test compounds and incubated for 10 min at RT. Assay plates were then transferred to a FLIPR Tetra plate reader (Molecular Devices). Dye fluorescence was then measured every 3 sec for a total of 10 min. After 12 sec, a 2.5 μl bolus of Ca2+(75 μM) was added from a source plate containing 675 μM CaCl2 in FLIPR assay buffer. IC50 values for test compounds were calculated using the fluorescence value collected at the 10 min timepoint with % inhibition calculated using the DMSO control and cyclosporin A values at […].

This is an account of results in patent US12497359B2, “Acrylamide derivatives” (NRG Therapeutics Ltd, priority 2020, dated 2025).

Values after ≈ are worked out from the molar mass of the structure shown.

As a reminder, the solubility is the dissolved amount per volume that the medium holds. A low value points to little dissolved substance.

In the case of `CO[C@H]1Cc2ccccc2[C@@H]1NC(=O)/C=C/c1ccc2cn[nH]c2c1` [Example 37, (E)-3-(1H-indazol-6-yl)-N-((1S,2S)-2-methoxy-2,3-dihydro-1H-inden-1-yl)acrylamide], the “mPTP Rat liver pIC50*” value in data set [1] amounted to 7.5. The hepatocyte CLint at 1 µM came out at 13 µL/min/1e6 cells in data set [2] and 25 µL/min/1e6 cells in data set [3]. In data set [4], this compound registered a solubility at 2 h of 80 µM (≈ 26.7 µg/mL).

As for `O=C(/C=C/c1ccc2cn[nH]c2c1)Nc1ccccc1CCN1CC(F)C1` [Example 32, (E)-N-(2-(2-(3-fluoroazetidin-1-yl)ethyl)phenyl)-3-(1H-indazol-6-yl)acrylamide], in data set [1], the “mPTP Rat liver pIC50*” value was found to be 5.8. The figures for the hepatocyte CLint at 1 µM in data set [2] and in data set [3] were 31 µL/min/1e6 cells and 64 µL/min/1e6 cells, respectively. The compound further registered a solubility at 2 h in data set [4] of 296 µM (≈ 108 µg/mL).

Consider `Cc1cccc(C)c1NC(=O)/C=C/c1ccc2cn[nH]c2c1` [Example 24, (E)-N-(2,6-dimethylphenyl)-3-(1H-indazol-6-yl)acrylamide], for which, in data set [1], the “mPTP Rat liver pIC50*” value is on record as 7.6. Further, the figures for the solubility at 2 h in data set [4] and in data set [5] were 3 µM (≈ 0.874 µg/mL) and 1.2 µM (≈ 0.35 µg/mL), respectively. Besides, the “mPTP Rat brain pIC50” value in data set [6] worked out at 7.6.

As for `O=C(/C=C/c1ccc2cn[nH]c2n1)NC1CCc2ccccc21` (stereo not drawn) [Example 36, (E)-N-(2,3-dihydro-1H-inden-1-yl)-3-(1H-pyrazolo[3,4-b]pyridin-6-yl)acrylamide], the “mPTP Rat liver pIC50*” value in data set [1] is reported as 6.3. Besides, the hepatocyte CLint at 1 µM in data set [2] was determined as 12 µL/min/1e6 cells. Also, the solubility at 2 h in data set [4] was 45 µM (≈ 13.7 µg/mL).
